Reference: patent US8883192B2, “Compositions and methods for reducing or preventing obesity” (Nestec S.A., priority 2004, dated 2014)

Experiments:
[1] = cited from earlier work
estrogen receptor (ER) = conditions: compared with other isoflavones; cited from earlier work
[2] = Metabolic profile of isoflavones and their metabolites in blood of dogs; assay type: in vivo, dog; conditions: blood of dogs tested; FIG. 8B
Text: The following measurements were made for each animal: • Body weight, body condition score, DEXA. • Plasma concentrations of isoflavones and their metabolites • Blood leptin • Intravenous glucose tolerance test • Oxidative stress measurement (isoprostanes: 8-iso-prostaglandin F2α, formed from arachidonic acid in phospholipids by free radical reaction): 3-month samples
The metabolic profiles of isoflavones and their metabolites in the blood of humans (FIG. 8A) and dogs (FIG. 8B) were compared.

rat adipocytes = conditions: cited from earlier work
topoisomerase II = conditions: cited from earlier work
tyrosine protein kinase = conditions: cited from earlier work
angiogenesis = conditions: cited from earlier work
[3] = test system: rats after surgically-induced menopause; conditions: cited from earlier work

## O=C1c2ccc(O)cc2OCC1c1ccc(O)cc1 (stereo not shown) [dihydrodaidzein]
[1]; Jiang 2003
  free radical scavenging activities: appears to have free radical scavenging activities

## Oc1ccc([C@H]2COc3cc(O)ccc3C2)cc1 [Equol]
Estrogen receptor (ER)
  induction of estrogen receptor (ER)-responsive transcription (estrogenic activity): more strongly than any other isoflavones
[1]; compared with all the isoflavones tested, Setchell 2002
  antioxidant activity: greatest antioxidant activity of all the isoflavones tested
[2]
  form of isoflavone metabolite in the blood: predominant form of isoflavone metabolite

## O=c1c(-c2ccc(O)cc2)coc2cc(O)cc(O)c12 [genistein]
Rat adipocytes
  basal and epinephrine-stimulated lipolysis: enhanced
  basal and insulin-stimulated lipogenesis: inhibited
Topoisomerase II
  inhibition of topoisomerase II: inhibitor
Tyrosine protein kinase
  inhibition of tyrosine protein kinase: inhibits
angiogenesis
  inhibition of angiogenesis: inhibits angiogenesis

## O=c1c(-c2ccc(O)cc2)coc2cc(O)ccc12 [Daidzein, daidzein]
Rat adipocytes
  basal and epinephrine-stimulated lipolysis: enhanced
  basal and insulin-stimulated lipogenesis: inhibited
[3]
  body fat accumulation: suppressing body fat accumulation

## COc1cc2c(=O)c(-c3ccc(O)cc3)coc2cc1O [glycitein]
[3]
  body fat accumulation: suppressing body fat accumulation
